Measured values as given in patent US11173158B2, “Medicinal agent and beverage/food for preventing cerebral dysfunction and improving same” (PTC Therapeutics MP, Inc., priority 2010, dated 2021).
“Also recorded” adds a separate entry of the source.

Experiments:
[1] = test system: PC12 cells; assay: Total amount of biopterin in PC12 cells after addition to culture medium; assay type: cell-based; conditions: 100 μM added, 0-180 min, FIG. 2A
Protocol: (§1) In Example 1, where PC12 cells and RBL2H3 cells were used as aromatic monoamine synthesizing cells and sepiapterin was added to a culture medium, evaluation was made for a total amount of biopterin in the cells (a total amount of tetrahydrobiopterin, and its oxidant, dihydrobiopterin and biopterin, the same shall apply hereinafter).
(§2) The PC12 cells are cultured cells having properties of a neuron and it is known that they synthesize dopamine, noradrenaline and adrenaline, with tetrahydrobiopterin used as a coenzyme. The RBL2H3 cells are cultured cells having properties of a mast cell and it is known that they synthesize serotonin, with tetrahydrobiopterin used as a coenzyme. […]
(§3) A total amount of biopterin in the cells was measured by using a system of high performance liquid chromatography/fluorescence detection (HPLC/FD) according to the Fukusima-Nixon method (refer to Non-Patent Document 8).
(§4) A principle of the Fukushima-Nixon method is as follows. Upon oxidation with iodine under strong acid or alkaline conditions, tetrahydrobiopterin is quantitatively oxidized into oxidized-form biopterin under acid conditions and oxidized into oxidized-form pterin in which a side chain in the 6th-class position is removed under alkaline conditions. […] The oxidized-form biopterin and the oxidized-form pterin have strong natural fluorescent characteristics (excitation: 350 nm, fluorescence: 450 nm). […]

[2] = test system: RBL2H3 cells; assay: Total amount of biopterin in RBL2H3 cells after addition to culture medium; assay type: cell-based; conditions: 100 μM added, 0-180 min, FIG. 2B
Protocol: as §1, §2, §3, §4

[3] = test system: hph-1 mice; assay: Amount of serotonin in brain of hph-1 mice after oral administration; assay type: in vivo, mouse; conditions: oral 20 mg/kg twice (2 h apart), brain 6 hours after first administration, FIG. 6
Protocol: The mice used were those of “hph-1” which were provided by Dr. […] (Institute of Metabolic Disease, Baylor University Medical Center, Dallas, Tex. 75226, USA). The mice are characterized as being defective in biosynthesis functions of tetrahydrobiopterin, with the level of tetrahydrobiopterin in the brain being from 40 to 50% as compared with ordinary mice. The mice were bred in a dark place for 12 hours and also in a light place for 12 hours and fed ad libitum with a diet (“MM-3” made by Funabashi Farm Co., Ltd.) and sterilized tap water as drinking water. An amount of serotonin was measured by dissolving sepiapterin or tetrahydrobiopterin in 0.01 M hydrochloric acid, thereafter administering orally each of the resultants at 20 mg/kg to the mice, giving another oral administration at the same dose two hours thereafter, and excised the brains from each mouse six hours after the first administration (n=7 in a group treated with sepiapterin, and n=8 in a group treated with tetrahydrobiopterin). […] In a control group, measurement was made similarly by orally administering 0.01M hydrochloric acid.

[4] = test system: SD rats; assay: Amounts of tetrahydrobiopterin, serotonin and 5-hydroxyindoleacetic acid in rat brain after oral administration; assay type: in vivo; conditions: 0-8 hours after administration; for amount of tetrahydrobiopterin in the brain: FIG. 5A
Protocol: In Example 4, rats were used to measure amounts of tetrahydrobiopterin, serotonin and 5-hydroxyindoleacetic acid in the brain on administration of sepiapterin. Rats used were SD rats (7-8 week old, males) purchased from Japan SLC, Inc. The rats were kept in a dark place for 12 hours and in a light place for 12 hours and fed ad libitum with a diet (“MM-3” made by Funabashi Farm Co., Ltd.) and sterilized tap water as drinking water. Sepiapterin or tetrahydrobiopterin was dissolved in 10 mM hydrochloric acid, the resultant of which was orally administered to the rats (n=6) under diethylether anesthesia. After 1, 1.5, 2, 3, 4, 6 and 8 hours, the brains were excised under pentobarbital sodium anesthesia (pentobarbital was intraperitoneally administered at 40 mg/kg five minutes before), and the brain was divided into two portions at the median line to obtain left and right brain samples. Rats not treated with sepiapterin or tetrahydrobiopterin were used as samples at 0 hours after administration according to the same procedures. […] Amounts of serotonin and 5-hydroxyindoleacetic acid in the brain were calculated by adding 3.5 times the volume of 1.43% ascorbic acid-containing 100 mM hydrochloric acid which contains N-methyl serotonin as an internal standard to a right brain sample, homogenizing brain tissues, adding […] (final concentration of 5.5%) thereto, ice-cooling the resultant for removing protein and treating a supernatant thereof in a system of high performance liquid chromatography/fluorescence detection (HPLC/FD), (refer to Non-Patent Document 9). In the high performance liquid chromatography, as with Example 1, etc., “Fine-SIL-C18-5T (made by JASCO Corporation)” was used as a column. […] In the system of high performance liquid chromatography/fluorescence detection (HPLC/FD), 5-hydroxytryptophan (5HTP), serotonin, N-methyl serotonin, tryptophan and 5-hydroxyindoleacetic acid are eluted in the above order, thus making it possible to determine quantitatively these substances at the same time.

[5] = test system: NZB mice; assay: Forced swim test in mice; assay type: in vivo, mouse; conditions: intraperitoneal single dose 10 mg/kg, test after 40 minutes, five-minute swimming, FIG. 7
Protocol: In Example 6, the mice were subjected to a forced swim test after administration of sepiapterin. The forced swim test of the mice is a test method for evaluating antidepressant effects, and length of “immobile” time is a criterion of depression. Evaluation is made in such a manner that the shorter the “immobile” time is, the greater the antidepressant effects are. The mice used were NZB mice purchased from. Japan SLC, Inc (7-week old males). The mice were maintained in a dark place for 12 hours and in a light place for 12 hours and fed ad libitum with a diet (“MM-3” made by Funabashi Farm Co., Ltd.) and sterilized tap water as drinking water, except when they were constrained in an experiment. The mice are characterized in that they are more likely to develop an auto-immune disease with advancement of age. […] The mice which had been subjected to 15-minute preliminary swimming without administration of a drug, etc., on the previous day were used in the experiment. The mice were intraperitoneally administered tetrahydrobiopterin (n=7) or sepiapterin (n=5) at a single dose of 10 mg/kg and subjected to a forced swim test after 40 minutes to measure “immobile” time. The test was conducted under dim light by using a 15 cm-across and 15 cm-deep water tank kept at a temperature of 22° C. “Immobile” time was measured by calculating an added value of “immobile” time during five-minute-swimming. […]

| SMILES | change in the total amount of biopterin in the cells [1] | change in the total amount of biopterin in the cells [2] | amount of serotonin in the brain [3] | amount of tetrahydrobiopterin in the brain [4] | amount of serotonin in the brain ([4]; FIG. 5B) | "immobile" time in forced swim test [5] |
| --- | --- | --- | --- | --- | --- | --- |
| C[C@H](O)C(=O)C1=Nc2c(nc(N)[nH]c2=O)NC1 [sepiapterin, 7,8-Dihydro-6-[(S)-2-hydroxy-1-oxopropyl]-pterin] | remarkable increase | remarkable increase | significant increase | significant increase | significantly increased | significantly short |
| C[C@H](O)[C@H](O)[C@H]1CNc2nc(N)[nH]c(=O)c2N1 [tetrahydrobiopterin, Tetrahydrobiopterin] | substantially no change; also recorded: slight increase | substantially no change; also recorded: slight increase | – | did not show an increase | – | – |
